Assay results as given in article PMC6248945, “Antibacterial properties of the pituitary adenylate cyclase-activating polypeptide: A new human antimicrobial peptide” (PLoS ONE, 2018).
In brackets after ≈: the same amount, converted by molar mass. Where a SMILES comes first, the peptide text is derived from it.

Legend:
Escherichia coli (JM109) = assay: MIC, CLSI microdilution; assay type: cell-based; conditions: MHB, 37 °C, 20h, OD read-out, at least triplicate
Protocol: Assays were performed according to the CLSI microdilution method. Briefly, the bacterial strains were inoculated and allowed to reach an OD600 of 0.08–0.13 prior to dilution to 10^6 CFU/mL in Mueller-Hinton broth (MHB). A bacterial suspension (50 μL) was then added to each well of a 96-well microplate containing serially diluted peptide solutions (50 μL in MHB) and incubated at 37 °C for 20h. A well containing sterilized medium was used as a sterility control and another well containing no added peptide served as a growth control.

[1] = system: Pseudomonas putida (KT2440); conditions: CLSI microdilution, MHB, 37 °C, 20h, OD read-out; at least triplicate
[2] = system: Pseudomonas fluorescens (MF37); conditions: 20 h
[3] = system: Pseudomonas aeruginosa (PA14); conditions: PA14, 20 h
[4] = system: Burkholderia cenocepacia (J2315); conditions: 20 h
[5] = system: Burkholderia thailendensis (ATCC700388); conditions: CLSI microdilution, MHB, 37 °C, 20h, OD read-out; at least triplicate
[6] = system: Serratia marcescens (ATCC14756); conditions: ATCC14756, 20 h
[7] = system: Bacillus circulans (LSPQ3543); conditions: 20 h
[8] = system: Bacillus cereus (ATCC11778); conditions: ATCC11778, 20 h
[9] = system: Actinobacillus pleuropneumoniae (4074); conditions: 20 h
Bacillus subtilis (PY79) = conditions: PY79, 20 h
Bacillus velezensis = conditions: 20 h
[10] = system: Bacillus amyloliquefaciens (LMG22478); conditions: LMG22478, 20 h
[11] = system: Staphylococcus aureus (ATCC6538#P); conditions: ATCC6538, 20 h
[12] = system: Staphylococcus aureus (Newman); conditions: 20 h
[13] = system: Pseudomonas aeruginosa (ATCC33350-Sero-2); conditions: ATCC33350, 20 h
[14] = system: Escherichia coli ATCC25922; conditions: ATCC25922, 20 h
[15] = system: Escherichia coli (O157 :H7); conditions: CLSI microdilution, MHB, 37 °C, 20h, OD read-out; at least triplicate
[16] = system: Burkholderia cenocepacia (K56-2); conditions: 20 h
[17] = system: Burkholderia cenocepacia (LMG18829); conditions: LMG18829, 20 h
[18] = system: Burkholderia cenocepacia (LMG19240); conditions: CLSI microdilution, MHB, 37 °C, 20h, OD read-out; at least triplicate
[19] = system: Burkholderia cenocepacia (CEP0511 Gvar3b); conditions: CLSI microdilution, MHB, 37 °C, 20h, OD read-out; at least triplicate
Bacillus subtilis (2597) = conditions: 2597, 20 h
DPP-IV = system: DPP-IV; parameters: method as in PMID 18353507; conditions: cited from earlier work
[20] = relative to PACAP38; cited from earlier work

Q: For CC[C@H](C)[C@H](NC(=O)CNC(=O)[C@H](CC(=O)O)NC(=O)[C@H](CO)NC(=O)[C@@H](N)Cc1c[nH]cn1)C(=O)N[C@@H](Cc1ccccc1)C(=O)N[C@H](C(=O)N[C@@H](CC(=O)O)C(=O)N[C@@H](CO)C(=O)N[C@@H](Cc1ccc(O)cc1)C(=O)N[C@@H](CO)C(=O)N[C@@H](CCCNC(=N)N)C(=O)N[C@@H](Cc1ccc(O)cc1)C(=O)N[C@@H](C)C(=O)N[C@@H](CCCCN)C(=O)N[C@@H](CCC(N)=O)C(=O)N[C@@H](CCSC)C(=O)N[C@@H](C)C(=O)N[C@H](C(=O)N[C@@H](C)C(=O)N[C@@H](CCCCN)C(=O)N[C@@H](Cc1ccc(O)cc1)C(=O)N[C@@H](CC(C)C)C(=O)N[C@@H](C)C(=O)N[C@@H](C)C(=O)N[C@H](C(=O)N[C@@H](CC(C)C)C(=O)NCC(=O)N[C@@H](CCCCN)C(=O)N[C@@H](CCCNC(=N)N)C(=O)N[C@@H](Cc1ccc(O)cc1)C(=O)N[C@@H](CCCCN)C(=O)N[C@@H](CCC(N)=O)C(=O)N[C@@H](CCCNC(=N)N)C(=O)N[C@H](C(=O)N[C@@H](CCCCN)C(=O)N[C@@H](CC(N)=O)C(=O)N[C@@H](CCCCN)C(N)=O)C(C)C)C(C)C)C(C)C)[C@@H](C)O [compound 6, [Ala^14,20]PACAP38] (H-HSDGIFTDSYSRYAKQMAVAKYLAAVLGKRYKQRVKNK-NH2), which “MIC, Escherichia coli (JM109)” value (Escherichia coli (JM109)) is on record?
A: 37 µg/mL (≈ 8.42 µM)

Q: And the “MIC, Pseudomonas putida (KT2440)” value [1]?
A: 113 µg/mL (≈ 25.7 µM)

Q: What about the “MIC, Pseudomonas fluorescens (MF37)” value [2] of the same molecule?
A: >200 µg/mL

Q: What about the “MIC, Pseudomonas aeruginosa (PA14)” value [3] of the same molecule?
A: >200 µg/mL

Q: And the “MIC, Burkholderia cenocepacia (J2315)” value [4]?
A: 8 µg/mL (≈ 1.82 µM)

Q: And the “MIC, Burkholderia thailendensis (ATCC700388)” value [5]?
A: >200 µg/mL

Q: What about the “MIC, Serratia marcescens (ATCC14756)” value [6] of the same molecule?
A: >200 µg/mL

Q: And the “MIC, Bacillus circulans (LSPQ3543)” value [7]?
A: 94 µg/mL (≈ 21.4 µM)

Q: And the “MIC, Bacillus cereus (ATCC11778)” value [8]?
A: >200 µg/mL

Q: And the “MIC, Actinobacillus pleuropneumoniae” value [9]?
A: >200 µg/mL

Q: What about the “MIC, Bacillus subtilis (PY79)” value (Bacillus subtilis (PY79)) of the same molecule?
A: 3.5 µg/mL (≈ 0.797 µM)

Q: And the “MIC, Bacillus velezensis” value (Bacillus velezensis)?
A: 52 µg/mL (≈ 11.8 µM)

Q: What about the “MIC, Bacillus amyloliquefaciens” value [10] of the same molecule?
A: 9 µg/mL (≈ 2.05 µM)

Q: And the “MIC, Staphylococcus aureus (ATCC6538#P)” value [11]?
A: >200 µg/mL

Q: And the “MIC, Staphylococcus aureus (Newman)” value [12]?
A: >200 µg/mL

Q: What about the “MIC, Pseudomonas aeruginosa (ATCC33350-Sero-2)” value [13] of the same molecule?
A: >200 µg/mL

Q: And the “MIC, Escherichia coli ATCC25922” value [14]?
A: >200 µg/mL

Q: And the “MIC, Escherichia coli (O157 :H7)” value [15]?
A: 113 µg/mL (≈ 25.7 µM)

Q: And the “MIC, Burkholderia cenocepacia (K56-2)” value [16]?
A: >200 µg/mL

Q: And the “MIC, Burkholderia cenocepacia (LMG18829)” value [17]?
A: >200 µg/mL

Q: What about the “MIC, Burkholderia cenocepacia (LMG19240)” value [18] of the same molecule?
A: >200 µg/mL

Q: And the “MIC, Burkholderia cenocepacia (CEP0511 Gvar3b)” value [19]?
A: >200 µg/mL

Q: What about the “MIC, Bacillus subtilis (2597)” value (Bacillus subtilis (2597)) of the same molecule?
A: 187 µg/mL (≈ 42.6 µM)

Q: What about the “Metabolic stability against DPP-IV” value (DPP-IV) of the same molecule?
A: improved metabolic stability

Q: And the “Metabolic stability in human plasma” value [20]?
A: improved metabolic stability
